The values that follow come from publication PMC7911516, “Investigation of the Factors Responsible for the Poor Oral Bioavailability of Acacetin in Rats: Physicochemical and Biopharmaceutical Aspects” (Pharmaceutics, 2021).

Data set [1] in a line: Parallel artificial membrane permeability assay (PAMPA). The following applies: GIT PAMPA Double Sink. In kind it is in vitro ADME. Here is the method: Simulated intestinal fluid (SIF) was prepared by dissolving 3 mM sodium taurocholate and 0.1% (w/v) pancreatin in phosphate buffer (final pH = 7.0). The solubility of acacetin was measured by adding excessive amounts of acacetin into glass vials containing 1.5 mL of water, pH 7.4 phosphate buffer, SGF, and SIF. […] The samples were centrifuged at 16,000× g for 5 min, and the supernatant was passed through a 0.20-μm syringe filter to remove excess acacetin. Further, the concentration of acacetin in the filtrate was determined using the LC-MS/MS method. […] Finally, the acacetin concentrations in the octanol and water layers were determined using the LC-MS/MS method. […] The PAMPA was conducted using a commercially available PAMPA kit (GIT PAMPA Double Sink; pION Inc., Massachusetts, MA, USA) according to the manufacturer's protocol. The permeability was calculated using pION PAMPA Explorer ver. 3.8 software (pION Inc., Massachusetts, MA, USA).
Background: PAMPA measures passive passage across an artificial lipid membrane.

Data set [2] is described as follows: Oral pharmacokinetic study in rats. The data set is classed as in vivo. How it is done:
The rats were fasted overnight before the experiment and anesthetized using an intramuscular injection of zoletil at 20 mg/kg. The femoral artery and vein were cannulated with a polyethylene tube (Clay Adams, Parsippany, NJ, USA). Acacetin (dissolved in a vehicle composed of DMSO, ethanol, and PEG400 (10:5:85, v/v/v)) was administered intravenously (10 mg/kg) or orally (100 mg/kg) to rats. Approximately 250 μL of blood was collected via the femoral artery at 0, 2, 5, 15, 30, 45, 60, 120, and 180 min after intravenous administration and at 0, 2, 5, 15, 30, 45, 60, 90, 120, and 180 min after oral administration. The cannula was flushed with heparin (20 IU/mL in saline) at each time point to prevent blood clotting. Following centrifugation of the blood sample at 8000× g and 4 °C for 2 min, 120 μL of plasma was obtained. Urine was collected at 1-h intervals in an ice-cold container over 24 h. After urine collection at 24 h, each rat was sacrificed by cervical dislocation; the entire GI tract (including its contents and feces) was excised, transferred into a beaker containing 100 mL methanol, and cut into small pieces using scissors. After manual stirring with a glass rod for 1 min, a 50-μL aliquot of the supernatant was collected. The plasma, urine (Ae24h), and GI tract (GI24h) samples were stored at −80 °C until further LC-MS/MS analysis.
A noncompartmental analysis (WinNonlin ver. 3.1; Certara USA Inc., Princeton, NJ, USA) was performed to determine the following pharmacokinetic parameters: the AUCinf, area under plasma concentration versus time curve from time zero to the last sampling time (AUClast), t1/2, total body clearance (CL), apparent volume of distribution at steady state (Vss), and absolute oral bioavailability (F). The Cmax and time to reach Cmax (Tmax) were directly obtained from the plasma concentration versus time data.

Data set [3] deals with rat CYP2C. Put plainly: Disappearance in RLM with CYP isoform-selective inhibitor SPZ. In kind it is in vitro ADME. The following applies: acacetin 20 μM, 10-μM SPZ, NADPH, 5 min. Here is the method:
(§1) To investigate hepatic phase I enzymes- and UGT-dependent metabolism of acacetin, the disappearance rate of acacetin at concentrations of 1–200 µM in RLM was measured in the presence of both NADPH and UDPGA. The substrate (acacetin) concentration ((S); µM) versus the initial metabolic rate (V; nmol/min/mg protein) profiles were interpreted based on Michaelis–Menten kinetics, and relevant parameters were estimated via nonlinear regression analysis (GraphPad Prism ver. 5.01; GraphPad Software, San Diego, CA, USA) using the following Michaelis–Menten equation: V = Vmax× [S]/Km× [S] where Km and Vmax are the Michaelis–Menten constant and maximal metabolic rate, respectively. The unbound intrinsic metabolic clearance (CLint) was calculated as Vmax/(Km × fuMIC). Furthermore, the disappearance of acacetin (20 μM) in the absence or presence of specific CYP isoform-selective inhibitors in RLM was determined to study the hepatic CYP-mediated metabolism of acacetin. Microsomal incubation mixtures (total volume of 200 μL) were prepared as follows: RLM (0.5 mg/mL microsomal protein), 1 mM NADPH, 10 mM MgCl2, 50 mM potassium phosphate buffer, acacetin, with or without CYP isoform-selective inhibitors (10 μM NF for rat CYP1A, 10-μM SPZ for rat CYP2C, 10-μM QND for rat CYP2D, and 10-μM KCZ for rat CYP3A). […]

Data set [4] relates to rat CYP3A. Put plainly: Disappearance in RLM with CYP isoform-selective inhibitor KCZ. The following applies: acacetin 20 μM, 10-μM KCZ, NADPH, 5 min. The data set is classed as in vitro ADME. Here is the method:
as §1

The nature of data set [5]: Maximum absorbable dose (MAD) estimation. Set-up: species or system rat. The following applies: oral dose 100 mg/kg, from measured SIF solubility. The source says:
The PAMPA permeability values of acacetin seem to lie approximately in the middle of those of verapamil and ranitidine. […]. Rats have been recognized as a good animal model for predicting the GI absorption of drugs, particularly via passive diffusion, in humans. As a GI absorption prediction model, the maximum absorbable dose (MAD) can estimate a theoretical dose of a drug that can be absorbed across rat intestine, using solubility, intestinal volume, residence time, and intestinal permeability. […] Thus, the SIF solubility of acacetin measured in the present study could not represent an actual solubility of acacetin when it is dispersed in the dosing vehicle and subsequently administered into the GI fluids, which could result in the under-estimation of MAD. Alternatively, an in silico estimate of acacetin solubility in water can be used for the calculation of MAD.

On the set-up of data set [6]: method as in PMID 28421306. The following applies: oral, 5 mg/kg in mice; cited from earlier work.

Structures are written as SMILES. Read-outs that look alike come from different tables or passages of the source.

Usually Papp stands for a coefficient for how fast a substance crosses the barrier. A low value points to slow passage. By AUC(0-t) is commonly meant the area under the concentration-time curve up to a stated or last time point. A lower AUC(0-t) goes with low exposure. Broadly, the Cmax is the highest concentration seen after dosing. By Tmax is commonly meant the time from dosing to the highest level. For orientation: bioavailability means the share of a dose that reaches the circulation, judged against a reference dose that is usually intravenous. Consider `COc1ccc(-c2cc(=O)c3c(O)cc(O)cc3o2)cc1` [acacetin, Acacetin], for which the apparent permeability coefficient (Papp) in data set [1] was 8.06 ± 0.91 ×10⁻⁶ cm/s. Moreover, the GI24h in data set [2] (PO 100 mg/kg, GI tract at 24 h) is 29.3 ± 22.3 % of dose. Moreover, the Ae24h in data set [2] (PO 100 mg/kg, urine 24 h) is 0.0601 ± 0.0634 % of dose. In data set [2] (rat, plasma, PO 100 mg/kg), the AUC(0-t) was 12.9 ng·h/mL and the concentration peaked (Cmax) at 52.1 ± 50.5 ng/mL. In data set [2] (rat, plasma, PO 100 mg/kg, median (range)), the Tmax was 5 min. Further, the bioavailability in data set [2] (rat, urine, PO 100 mg/kg vs IV 10 mg/kg, from dose-normalized urinary excretion, read-out: F (absolute oral bioavailability)) came to 2.34%. Besides, the “Reduction of relative disappearance rate in presence of SPZ” value in data set [3] is on record as 25.8%. In data set [4], the “Reduction of relative disappearance rate in presence of KCZ” value is 43.7%. In data set [5], the “MAD as portion of the orally administered dose” value is reported as 0.00361%. Also, in data set [6], the Cmax is on record as 17 ng/mL and the F was 1.30%.
